Experiments:
hGPR40 receptor = hGPR40 receptor (Homo sapiens (Human), UniProt O14842); assay: agonistic activity on hGPR40-CHO stably transfected cells (Fluo-4 / FLIPR); type: cell-based; conditions: for activation at 0.1 µM: 100 nM, relative to linoleic acid well; for EC50: mean ± SD of three determinations
Method: Experimental example 1 The agonistic activity of the compounds of the present invention on hGPR40-CHO stably transfected cells
The present invention used the following method to determine the GPR40 agonistic activity of the compounds of the invention:
hGPR40-CHO stably transfected cells were seeded into a 96-well plate at a density of 3×10^4/well, and incubated overnight in a 37° C., 5% CO2 cell incubator; the medium was discarded, 100 μl of HBSS was added to each well, and 100 μl of Fluo-4 dye solution containing Probenecid was added and incubated at 37° C. for 90 min. After the incubation, the Fluo-4 dye solution was sucked out, 100 μl of HBSS buffer was added, and the dye was washed away; 100 μl of HBSS containing Probenecid was added to each well, and incubated at 37° C. for 10 min; different concentrations of drugs were added to each well of the 96-well plate and FLIPR (Molecular Devices) was used for readings according to the parameter setting table. The experimental results were analyzed.

normal mice = assay: Oral glucose tolerance test (OGTT) in normal mice; type: in vivo, Kunming mice; conditions: for effect on oral glucose tolerance in mice (in words): OGTT in normal mice, 20 mg/kg; for blood glucose level at 15 min / blood glucose level at 0 min / blood glucose level at 30 min / blood glucose level at 60 min / blood glucose level at 120 min: OGTT, 20 mg/kg by gavage, n = 8, in mmol/L (unit assumed); for blood glucose level at 15 min: 15 min after glucose load; for blood glucose level at 0 min: 30 min after dosing, before glucose load; for blood glucose level at 30 min: 30 min after glucose load; for blood glucose level at 60 min: 60 min after glucose load; for blood glucose level at 120 min: 120 min after glucose load
Method: Experimental example 2 In vivo hypoglycemic activity of the compounds of the present invention can be determined by using an assay system as described below:
The mice were fasted for 12 hours before experiment and water was taken freely, each group was administrated by gavage, blood was taken from the tail, and the blood glucose level was measured (recorded as −30 min).

[1] = Evaluation of hepatotoxicity: serum ALT, AST and TBIL after 4 weeks of dosing; type: in vivo; conditions: for ALT (IU/L) / AST (IU/L) / TBIL (IU/L): serum, once a day for consecutive 4 weeks, x ± SD, n = 6
Method: Experimental example 3 Evaluation of hepatotoxicity of the compounds of the present invention:
The test compounds were administered once a day for consecutive 4 weeks, blood was taken, and the contents of alanine aminotransferase (ALT), aspartate aminotransferase (AST), and total bilirubin (TBIL) were measured.

GPR120 = GPR120 (Homo sapiens (Human), UniProt Q5NUL3); assay: selective experiment of GPR120 agonism; type: cell-based; conditions: selectivity experiment; read-out: EC K (EC50) of GPR120 agonism
PPARγ = PPARγ (Homo sapiens (Human), UniProt P37231); assay: selective experiment of PPARγ agonism; type: cell-based; conditions: selectivity experiment; read-out: EC K (EC50) of PPARγ agonism
Sequence of PPARγ (P37231 whole entry, species assumed): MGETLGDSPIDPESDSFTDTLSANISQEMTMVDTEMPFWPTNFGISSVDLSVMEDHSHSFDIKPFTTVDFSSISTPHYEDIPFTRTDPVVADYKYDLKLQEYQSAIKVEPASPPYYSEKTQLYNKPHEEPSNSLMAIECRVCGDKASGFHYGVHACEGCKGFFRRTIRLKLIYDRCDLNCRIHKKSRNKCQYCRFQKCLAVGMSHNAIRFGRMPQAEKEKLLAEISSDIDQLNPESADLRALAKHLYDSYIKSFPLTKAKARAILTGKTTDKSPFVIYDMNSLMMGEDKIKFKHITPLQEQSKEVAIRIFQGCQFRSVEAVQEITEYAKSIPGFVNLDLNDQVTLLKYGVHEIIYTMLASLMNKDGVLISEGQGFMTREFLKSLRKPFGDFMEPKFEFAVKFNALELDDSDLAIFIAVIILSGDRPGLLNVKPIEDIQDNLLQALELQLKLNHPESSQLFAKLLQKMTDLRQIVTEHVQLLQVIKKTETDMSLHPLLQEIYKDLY

Sequence of hGPR40 receptor (O14842 whole entry): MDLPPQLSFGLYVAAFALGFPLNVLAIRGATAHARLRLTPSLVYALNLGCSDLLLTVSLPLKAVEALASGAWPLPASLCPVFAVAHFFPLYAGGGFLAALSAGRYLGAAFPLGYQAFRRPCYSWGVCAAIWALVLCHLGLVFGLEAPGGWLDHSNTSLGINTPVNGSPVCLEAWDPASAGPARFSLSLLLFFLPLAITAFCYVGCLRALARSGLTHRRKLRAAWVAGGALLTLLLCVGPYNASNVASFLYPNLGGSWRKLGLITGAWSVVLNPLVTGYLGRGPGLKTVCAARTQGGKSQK
Sequence of GPR120 (Q5NUL3 whole entry, species assumed): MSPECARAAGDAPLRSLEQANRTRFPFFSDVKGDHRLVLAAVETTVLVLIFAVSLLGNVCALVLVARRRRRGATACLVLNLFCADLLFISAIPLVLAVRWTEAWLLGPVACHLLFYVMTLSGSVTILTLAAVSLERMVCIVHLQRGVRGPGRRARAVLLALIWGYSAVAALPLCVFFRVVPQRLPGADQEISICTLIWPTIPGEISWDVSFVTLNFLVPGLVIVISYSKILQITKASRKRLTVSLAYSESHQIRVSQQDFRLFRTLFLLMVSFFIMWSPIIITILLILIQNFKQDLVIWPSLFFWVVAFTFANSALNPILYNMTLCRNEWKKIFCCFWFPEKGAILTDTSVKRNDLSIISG

SMILES | activation at 0.1 µM (hGPR40 receptor) [%] | melting point [°C] | further results
Cc1noc(C)c1-c1cccc(CNc2ccc(OCC(=O)O)c(F)c2)c1 [Compound I-14, 2-(4-((3-(3,5-dimethylisoxazol-4-yl)benzyl)amino)-2-fluorophenoxy)acetic acid] | 54 | 72 to 73 | 
Cc1cc(OC(F)(F)F)ccc1-c1cccc(CNc2ccc(OCC(=O)O)c(F)c2)c1 [Compound I-35, 2-(4-((4′-trifluoromethoxy-2′-methyl-[1,1′-biphenyl]-3-methylene)amino)2-fluorophenoxy)acetic acid] | 78 | 123 to 125 | 
Cc1cc(OC(C)C)ccc1-c1cccc(CNc2ccc(OCC(=O)O)c(F)c2)c1 [Compound I-22] | 65 | 134 to 137 | 
Cc1ccccc1-c1cccc(CNc2ccc(OCC(=O)O)cc2)c1 [Compound I-25, 2-(4-((2′-methyl-[1,1′-biphenyl]-3-methylene)amino)phenoxy)acetic acid] | 82 | 101 to 104 | EC50 (hGPR40 receptor): 17.3 ± 3.3 nM; effect on oral glucose tolerance in mice (in words) (normal mice): significantly improve oral glucose tolerance; blood glucose level at 15 min (normal mice): 8.47 ± 0.45; blood glucose level at 0 min (normal mice): 4.48 ± 0.39; blood glucose level at 30 min (normal mice): 7.23 ± 0.39; blood glucose level at 60 min (normal mice): 5.11 ± 0.29; blood glucose level at 120 min (normal mice): 4.29 ± 0.39; ALT (IU/L) [1]: 51.78 ± 4.5 IU/L; AST (IU/L) [1]: 116.54 ± 8.9 IU/L; TBIL (IU/L) [1]: 2.69 ± 0.4 IU/L
O=C(O)COc1ccc(NCc2cccc(-c3ccccc3Cl)c2)cc1 [Compound I-24, 2-(4-((2′-chloro-[1,1′-biphenyl]-3-methylene)amino)phenoxy)acetic acid] | 80 | 124 to 126 | EC50 (hGPR40 receptor): 18.6 ± 2.7 nM; effect on oral glucose tolerance in mice (in words) (normal mice): significantly improve oral glucose tolerance; blood glucose level at 15 min (normal mice): 9.22 ± 0.57; blood glucose level at 0 min (normal mice): 4.39 ± 0.34; blood glucose level at 30 min (normal mice): 8.04 ± 0.49; blood glucose level at 60 min (normal mice): 5.29 ± 0.34; blood glucose level at 120 min (normal mice): 4.33 ± 0.33; ALT (IU/L) [1]: 52.68 ± 5.7 IU/L; AST (IU/L) [1]: 116.78 ± 12.4 IU/L; TBIL (IU/L) [1]: 2.56 ± 0.2 IU/L
CCOCCOc1cc(C)c(-c2cccc(CNc3ccc(OCC(=O)O)c(F)c3)c2)c(C)c1 [Compound I-36, 2-(2-fluoro-4-((4′-(2-ethoxyethoxy)-2′,6′-dimethyl-[1,1′-biphenyl]-3-methylene)amino)phenoxy)acetic acid] | 56 | 137 to 139 | 
COc1ccccc1-c1cccc(CNc2ccc(OCC(=O)O)c(F)c2)c1 [Compound I-6, 2-(4-((2′-methoxy-[1,1′-biphenyl]-3-methylene)amino)-2-fluorophenoxy)acetic acid] | 53 | 95 to 96 | 
Cc1ccccc1-c1cccc(CNc2ccc(OCC(=O)O)c(F)c2)c1 [Compound I-3, 2-(4-((2′-methyl-[1,1′-biphenyl]-3-methylene)amino)-2-fluorophenoxy)acetic acid] | 87 |  | EC50 (hGPR40 receptor): 4.8 ± 3.5 nM; effect on oral glucose tolerance in mice (in words) (normal mice): significantly improve oral glucose tolerance; blood glucose level at 15 min (normal mice): 7.13 ± 0.29; blood glucose level at 0 min (normal mice): 4.61 ± 0.63; blood glucose level at 30 min (normal mice): 6.94 ± 0.38; blood glucose level at 60 min (normal mice): 5.06 ± 0.23; blood glucose level at 120 min (normal mice): 4.38 ± 0.29; AST, ALT and TBIL compared with STZ (blank) group (in words) ([1]; 4 weeks of dosing): equivalent to the blank group; ALT (IU/L) [1]: 51.23 ± 5.6 IU/L; AST (IU/L) [1]: 103.27 ± 9.98 IU/L; TBIL (IU/L) [1]: 2.55 ± 0.4 IU/L; EC50 (GPR120): 54000 nM; EC50 (PPARγ): 83000 nM
N#Cc1ccccc1-c1cccc(CNc2ccc(OCC(=O)O)c(F)c2)c1 [Compound I-7, 2-(4-((2′-Nitrile-[1,1′-biphenyl]-3-methylene)amino)-2-fluorophenoxy)acetic acid] | 45 | 137 to 140 | 
O=C(O)COc1ccc(NCc2cccc(-c3ccccc3OC(F)(F)F)c2)cc1 [Compound I-32, 2-(4-((2′-trifluoromethoxy-[1,1′-biphenyl]-3-methylene)amino)phenoxy)acetic acid] | 46 | 107 to 110 | 
O=C(O)COc1ccc(NCc2cccc(-c3ccccc3OC(F)(F)F)c2)cc1F [Compound I-33] | 50 | 111 to 113 | 
Cc1cc(OC(F)(F)F)cc(C)c1-c1cccc(CNc2ccc(OCC(=O)O)c(F)c2)c1 [Compound I-34, 2-(4-((4′-trifluoromethoxy-2′,6′-dimethyl-[1,1′-biphenyl]-3-methylene)amino)-2-fluorophenoxy)acetic acid] | 64 | 127 to 130 | 
O=C(O)COc1ccc(NCc2cccc(-c3ccccc3F)c2)cc1 [Compound I-26, 2-(4-((2′-fluoro-[1,1′-biphenyl]-3-methylene)amino)phenoxy)acetic acid] | 61 | 111 to 112 | 

The next lines start with results.

activation at 0.1 µM (hGPR40 receptor) [%] | melting point [°C] | SMILES | further results
65 | 131 to 134 | COc1cc(C)c(-c2cccc(CNc3ccc(OCC(=O)O)cc3)c2)c(C)c1 [Compound I-18, 2-(4-((4′-methoxy-2′,6′-dimethyl-[1,1′-biphenyl]-3-methylene)amino)phenoxy)acetic acid] | 
69 | 111 to 114 | Cc1ccc(-c2cccc(CNc3ccc(OCC(=O)O)cc3)c2)c(Cl)c1 [Compound I-27, 2-(4-((2′-chloro-4′-methyl-[1,1′-biphenyl]-3-methylene)amino)phenoxy)acetic acid] | 
75 | 121 to 124 | COc1ccc(-c2cccc(CNc3ccc(OCC(=O)O)cc3)c2)c(C)c1 [Compound I-21] | 
60 | 132 to 134 | COCOc1cc(C)c(-c2cccc(CNc3ccc(OCC(=O)O)cc3)c2)c(C)c1 [Compound I-39, 2-(4-((4′-(2-methoxymethoxy)-2′,6′-dimethyl-[1,1′-biphenyl]-3-methylene)amino)phenoxy)acetic acid] | 
64 | 136 to 138 | COCOc1cc(C)c(-c2cccc(CNc3ccc(OCC(=O)O)c(F)c3)c2)c(C)c1 [Compound I-38, 2-(2-fluoro-4-((4′-(2-methoxymethoxy)-2′,6′-dimethyl-[1,1′-biphenyl]-3-methylene)amino)phenoxy)acetic acid] | 
62 | 132 to 135 | Cc1cc(OC(C)C)ccc1-c1cccc(CNc2ccc(OCC(=O)O)cc2)c1 [Compound I-23] | 
63 | 136 to 139 | CCOCOc1cc(C)c(-c2cccc(CNc3ccc(OCC(=O)O)c(F)c3)c2)c(C)c1 [Compound I-40, 2-(2-fluoro-4-((4′-(2-ethoxymethoxy)-2′,6′-dimethyl-[1,1′-biphenyl]-3-methylene)amino)phenoxy)acetic acid] | 
59 | 128 to 131 | CCOCOc1cc(C)c(-c2cccc(CNc3ccc(OCC(=O)O)cc3)c2)c(C)c1 [Compound I-41, 2-(4-((4′-(2-ethoxymethoxy)-2′,6′-dimethyl-[1,1′-biphenyl]-3-methylene)amino)phenoxy)acetic acid] | 

Reference: patent US11905230B2, “Phenoxyacetic acid derivatives, preparation method thereof and use thereof as medicament” (CHINA PHARMACEUTICAL UNIVERSITY, priority 2017, dated 2024)
